In the supplement of paper PMC10307832:

What was measured:
Test in all cases: relative viability (nuclei count vs DMSO), 5 days (fraction); higher = more cells survive
Vismodegib + Pictilisib = compound: CS(=O)(=O)c1ccc(C(=O)Nc2ccc(Cl)c(-c3ccccn3)c2)c(Cl)c1 [Vismodegib] + CS(=O)(=O)N1CCN(Cc2cc3nc(-c4cccc5[nH]ncc45)nc(N4CCOCC4)c3s2)CC1 [Pictilisib] (partner 1 µM)
Method in brief: (§1)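 Lung cancer cell lines in 1536-well plates were dosed by pin tool the day after seeding, either with one drug alone or with a fixed anchor-drug dose plus five library-drug doses (not always all listed) in √10 steps. After 5 days, cells were fixed and their nuclei stained in one step (final 0.05% Triton X-100, 1% formaldehyde, 1 ug/ml Hoechst), then counted on 4× images. Relative viability is the nuclei count in treated wells divided by that in vehicle wells. Values are medians of duplicate plates.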

Vismodegib + Olaparib = compound: CS(=O)(=O)c1ccc(C(=O)Nc2ccc(Cl)c(-c3ccccn3)c2)c(Cl)c1 [Vismodegib] + O=C(c1cc(Cc2n[nH]c(=O)c3ccccc23)ccc1F)N1CCN(C(=O)C2CC2)CC1 [Olaparib] (partner 8 µM)
Method in brief: as §1

VE-821 + Crizotinib = compound: CS(=O)(=O)c1ccc(-c2cnc(N)c(C(=O)Nc3ccccc3)n2)cc1 [VE-821] + C[C@@H](Oc1cc(-c2cnn(C3CCNCC3)c2)cnc1N)c1c(Cl)ccc(F)c1Cl [Crizotinib] (partner 1 µM)
Method in brief: as §1

VE-821 + Trametinib = compound: CS(=O)(=O)c1ccc(-c2cnc(N)c(C(=O)Nc3ccccc3)n2)cc1 [VE-821] + CC(=O)Nc1cccc(-n2c(=O)n(C3CC3)c(=O)c3c(Nc4ccc(I)cc4F)n(C)c(=O)c(C)c32)c1 [Trametinib] (partner 0.02 µM)
Method in brief: as §1

Row | Cell Line | relative viability (Vismodegib + Pictilisib; first compound 0.08 µM) | relative viability (Vismodegib + Pictilisib; first compound 0.253 µM) | relative viability (Vismodegib + Pictilisib; first compound 0.8 µM) | relative viability (Vismodegib + Pictilisib; first compound 2.53 µM) | relative viability (Vismodegib + Pictilisib; first compound 8 µM) | relative viability (Vismodegib + Olaparib; first compound 0.08 µM) | relative viability (Vismodegib + Olaparib; first compound 0.253 µM) | relative viability (Vismodegib + Olaparib; first compound 0.8 µM) | relative viability (Vismodegib + Olaparib; first compound 2.53 µM) | relative viability (Vismodegib + Olaparib; first compound 8 µM) | relative viability (VE-821 + Crizotinib; first compound 0.08 µM) | relative viability (VE-821 + Crizotinib; first compound 0.253 µM) | relative viability (VE-821 + Crizotinib; first compound 0.8 µM) | relative viability (VE-821 + Crizotinib; first compound 2.53 µM) | relative viability (VE-821 + Crizotinib; first compound 8 µM) | relative viability (VE-821 + Trametinib; first compound 0.08 µM) | relative viability (VE-821 + Trametinib; first compound 0.253 µM) | relative viability (VE-821 + Trametinib; first compound 0.8 µM) | relative viability (VE-821 + Trametinib; first compound 2.53 µM) | relative viability (VE-821 + Trametinib; first compound 8 µM)
1 | LC-2-ad | 0.49 | 0.503 | 0.513 | 0.643 | 0.421 | 0.681 | 0.734 | 0.686 | 0.658 | 0.716 | 0.516 | 0.424 | 0.526 | 0.518 | 0.499 | 0.985 | 0.886 | 0.879 | 0.912 | 0.956
2 | NCI-H2126 | 0.519 | 0.521 | 0.446 | 0.493 | 0.484 | 0.887 | 0.966 | 0.928 | 0.849 | 0.969 | 1.02 | 0.954 | 0.954 | 0.965 | 0.859 | 0.54 | 0.54 | 0.549 | 0.495 | 0.533
3 | NCI-H647 | – | 0.407 | 0.389 | 0.401 | 0.586 | 0.66 | 0.508 | 0.669 | 0.368 | 0.479 | 1.11 | 1.05 | 1.02 | 0.935 | 0.42 | 0.62 | 0.419 | 0.352 | 0.389 | 0.234
4 | NCI-H322M | 0.544 | 0.445 | 0.527 | 0.484 | 0.509 | 0.753 | 0.679 | 0.695 | 0.704 | 0.776 | 1.03 | – | 0.858 | 0.881 | 0.502 | 0.604 | 0.565 | 0.572 | 0.493 | 0.472
5 | NCI-H358 | 0.301 | 0.326 | 0.294 | 0.37 | 0.34 | 0.564 | 0.597 | 0.525 | 0.521 | 0.667 | 0.67 | 0.636 | 0.501 | 0.588 | 0.451 | 0.143 | 0.139 | 0.139 | 0.138 | 0.134
6 | LK-2 | 0.648 | 0.619 | 0.515 | 0.551 | 0.602 | 0.379 | 0.574 | 0.956 | 0.638 | 0.604 | 0.223 | 0.228 | 0.248 | 0.249 | 0.212 | 1.02 | 0.775 | 0.734 | 0.897 | 0.818
7 | NCI-H1993 | 0.875 | 0.947 | 0.771 | 0.792 | 0.822 | 0.9 | 1.03 | 1.03 | 1 | 0.963 | 0.897 | 0.844 | 0.809 | 0.852 | 0.686 | 0.534 | 0.604 | 0.61 | 0.505 | 0.502
8 | A-427 | 0.757 | 0.701 | 0.635 | 0.694 | 0.634 | 0.743 | 0.804 | 0.642 | 0.675 | 0.786 | 0.907 | 0.821 | 0.785 | 0.811 | 0.384 | 0.868 | 0.676 | 0.812 | 0.686 | 0.495
9 | NCI-H2347 | 0.563 | 0.664 | 0.637 | 0.609 | 0.717 | 0.579 | 0.548 | 0.621 | 0.615 | 0.597 | 0.723 | 0.794 | 0.684 | 0.983 | 0.713 | 0.298 | 0.276 | 0.289 | 0.292 | 0.324
10 | ChaGo-K-1 | 0.784 | 0.851 | 0.623 | 0.666 | 0.709 | 0.452 | 0.436 | 0.455 | 0.398 | 0.405 | 1.18 | 1.18 | 1 | 1.17 | 0.989 | 0.981 | 0.932 | 0.866 | 0.969 | 0.851
11 | BEN | 0.614 | 0.602 | 0.537 | 0.541 | 0.583 | 1.14 | 1.05 | 0.889 | 1.08 | 1.13 | 0.952 | 0.847 | 0.688 | 0.835 | 0.796 | 1.08 | 1.02 | 0.982 | 1.14 | 1.09
12 | NCI-H23 | 0.535 | 0.462 | 0.432 | 0.452 | 0.425 | 0.321 | 0.277 | 0.26 | 0.296 | 0.409 | 0.788 | 0.495 | 0.501 | 0.508 | 0.272 | 0.459 | 0.457 | 0.34 | 0.278 | 0.272
13 | LU99A | 0.319 | 0.39 | 0.256 | 0.313 | 0.324 | 0.306 | 0.278 | 0.292 | 0.267 | 0.247 | 0.628 | 0.564 | 0.532 | 0.476 | 0.325 | 0.532 | 0.541 | 0.572 | 0.528 | 0.29
14 | SW 1573 | 0.417 | 0.509 | 0.59 | 0.502 | 0.51 | – | 0.487 | 0.476 | 0.442 | 0.497 | 0.944 | 0.675 | 0.636 | 0.963 | 0.855 | 0.53 | 0.627 | 0.574 | 0.547 | 0.378
15 | NCI-H2009 | 0.818 | 0.858 | 0.727 | 0.812 | 0.908 | 0.679 | 0.655 | 0.699 | 0.662 | 0.724 | 1.08 | 1.01 | 0.963 | 1.02 | 0.879 | 0.266 | 0.287 | 0.254 | 0.263 | 0.174
16 | HCC-15 | 0.754 | 0.758 | 0.711 | 0.748 | 0.597 | 0.652 | 0.709 | 0.718 | 0.737 | 0.608 | 0.989 | 0.817 | 0.906 | 0.982 | 0.854 | 0.354 | 0.334 | 0.39 | 0.499 | 0.487
17 | EPLC-272H | 0.319 | 0.382 | 0.308 | 0.317 | 0.293 | 0.839 | 0.69 | 0.674 | 0.783 | 0.837 | 1.04 | 0.853 | 0.923 | 1.19 | 0.906 | 0.291 | 0.28 | 0.273 | 0.289 | 0.27
18 | NCI-H1792 | 0.28 | 0.299 | 0.23 | 0.227 | 0.28 | 0.381 | 0.412 | 0.527 | 0.349 | 0.376 | 0.831 | 0.99 | 0.947 | 1.01 | 0.949 | 0.505 | 0.464 | 0.361 | 0.65 | 0.492
19 | HCC-78 | 0.19 | 0.189 | 0.176 | 0.206 | 0.234 | 0.676 | 0.79 | 0.639 | 0.755 | 0.844 | 0.344 | 0.368 | 0.338 | 0.352 | 0.336 | 0.816 | 0.646 | 0.689 | 0.855 | 0.917
20 | LXF-289 | 0.735 | 0.783 | 0.765 | 0.883 | 0.802 | 1.05 | 1.01 | 1.11 | 1.02 | 0.94 | 0.919 | 0.812 | 0.9 | 0.933 | 0.912 | 0.708 | 0.641 | 0.773 | 0.745 | 0.741
21 | NCI-H460 | 0.3 | 0.385 | 0.286 | 0.318 | 0.313 | 0.413 | 0.409 | 0.437 | 0.382 | 0.439 | 1.5 | 0.818 | 0.588 | 0.359 | 0.186 | 0.185 | 0.0922 | 0.121 | 0.11 | 0.0592
22 | NCI-H2023 | 0.268 | 0.229 | 0.195 | 0.238 | 0.254 | 0.496 | 0.448 | 0.519 | 0.44 | 0.541 | 0.715 | 0.659 | 0.395 | 0.316 | 0.193 | 0.575 | 0.488 | 0.349 | 0.252 | 0.181
23 | SK-LU-1 | 0.503 | 0.666 | 0.636 | 0.583 | 0.643 | 0.343 | 0.451 | 0.481 | 0.469 | 0.522 | 0.788 | 0.863 | 0.884 | 0.591 | 0.387 | 0.495 | 0.53 | 0.387 | 0.547 | 0.291
24 | NCI-H1734 | 0.429 | 0.446 | 0.429 | 0.469 | 0.512 | 0.574 | 0.515 | 0.605 | 0.59 | 0.672 | 0.827 | 0.649 | 0.585 | 0.726 | 0.541 | 0.718 | 0.732 | 0.651 | 0.723 | 0.587
25 | PC-3 [JPC-3] | 0.756 | 0.736 | 0.694 | 0.716 | 0.726 | 1.09 | 1.11 | 1.03 | 1.09 | 1.17 | 1.06 | 0.968 | 1.1 | 0.98 | 0.963 | 0.727 | 0.744 | 0.701 | 0.826 | 0.763
26 | HCC-827 | 1.22 | 1.06 | 0.834 | 0.854 | 0.97 | 0.581 | 0.653 | 0.728 | 0.678 | 0.657 | 0.989 | 1.01 | 0.94 | 1.02 | 0.898 | 0.613 | 0.524 | 0.565 | 0.52 | 0.499
27 | NCI-H2405 | – | 0.441 | 0.373 | 0.341 | 0.531 | 0.856 | 0.909 | 0.823 | 0.833 | 0.875 | 1.01 | 0.81 | 0.776 | 0.924 | 0.788 | 0.643 | 0.628 | 0.53 | 0.699 | 0.546
